Results from patent US10131652B2, “Pyrimidinyloxy benzene derivatives as herbicides” (E. I. DU PONT DE NEMOURS AND COMPANY, priority 2014, dated 2018).
Read-outs that look alike come from different tables or passages of the source.

How the values were obtained:
Type in all cases: in vivo
[1] = system: pigweed (Amaranthus retroflexus); assay: Test D pre-/postemergence plant response; conditions: Amaranthus retroflexus, pre-emergence, Preemergence, scale 0 to 100 (0 no effect, 100 complete control), read-out: Plant response rating, Pigweed
Description: (§1) Seeds of plant species selected from blackgrass (Alopecurus myosuroides), Italian ryegrass (Lolium multiflorum), winter wheat (Triticum aestivum), galium (catchweed bedstraw, Galium aparine), corn (Zea mays), large (Lg) crabgrass (Digitaria sanguinalis), giant foxtail (Setaria faberii), johnsongrass (Sorghum halepense), lambsquarters (Chenopodium album), morningglory (Ipomoea coccinea), yellow nutsedge (Cyperus esculentus), pigweed (Amaranthus retroflexus), ragweed (common ragweed, Ambrosia elatior), soybean (Glycine max), bamyardgrass (Echinochloa crus-galli), oilseed rape (Brassica napus), waterhemp (common waterhemp, Amaranthus rudis), and velvetleaf (Abutilon theophrasti) were planted into a blend of loam soil and sand and treated preemergence with test chemicals formulated in a non-phytotoxic solvent mixture which included a surfactant. At the same time, plants selected from these crop and weed species and also kochia (Kochia scoparia), wild oat (Avena fatua), and chickweed (common chickweed, Stellaria media) were planted in pots containing Redi-Earth® planting medium (Scotts Company, 14111 Scottslawn Road, Marysville, Ohio 43041) comprising spaghnum peat moss, vermiculite, wetting agent and starter nutrients and treated with postemergence applications of test chemicals formulated in the same manner. Plants ranged in height from 2 to 18 cm (1- to 4-leaf stage) for postemergence treatments. Treated plants and controls were maintained in a greenhouse for 13 to 15 days, after which time all species were compared to controls and visually evaluated. Plant response ratings, summarized in Table D, are based on a scale of 0 to 100 where 0 is no effect and 100 is complete control. A dash (-) response means no test result.

[2] = system: johnsongrass (Sorghum halepense); assay: Test D pre-/postemergence plant response; conditions: Sorghum halepense, pre-emergence, Preemergence, scale 0 to 100 (0 no effect, 100 complete control), read-out: Plant response rating, Johnsongrass
Description: as §1

[3] = system: yellow nutsedge (Cyperus esculentus); assay: Test D pre-/postemergence plant response; conditions: Cyperus, pre-emergence, Preemergence, scale 0 to 100 (0 no effect, 100 complete control), read-out: Plant response rating, Nutsedge, Yellow
Description: as §1

[4] = system: barnyardgrass (Echinochloa crus-galli); assay: Test D pre-/postemergence plant response; conditions: Echinochloa crus-galli, pre-emergence, Preemergence
Description: as §1

[5] = system: ragweed (common ragweed, Ambrosia elatior); assay: Test D pre-/postemergence plant response; conditions: Ambrosia artemisiifolia, pre-emergence, Preemergence, scale 0 to 100 (0 no effect, 100 complete control), read-out: Plant response rating, Ragweed
Description: as §1

[6] = system: giant foxtail (Setaria faberii); assay: Test D pre-/postemergence plant response; conditions: Setaria faberi, pre-emergence, Preemergence, scale 0 to 100 (0 no effect, 100 complete control), read-out: Plant response rating, Foxtail, Giant
Description: as §1

[7] = system: waterhemp (common waterhemp, Amaranthus rudis); assay: Test D pre-/postemergence plant response; conditions: Amaranthus tuberculatus, pre-emergence, Preemergence, scale 0 to 100 (0 no effect, 100 complete control), read-out: Plant response rating, Waterhemp
Description: as §1

soybean (Glycine max) = assay: Test D pre-/postemergence plant response; conditions: Glycine max, pre-emergence, Preemergence, scale 0 to 100 (0 no effect, 100 complete control), read-out: Plant response rating, Soybean
Description: as §1

[8] = system: blackgrass (Alopecurus myosuroides); assay: Test D pre-/postemergence plant response; conditions: Alopecurus myosuroides, pre-emergence, Preemergence, scale 0 to 100 (0 no effect, 100 complete control), read-out: Plant response rating, Blackgrass
Description: as §1

[9] = system: morningglory (Ipomoea coccinea); assay: Test D pre-/postemergence plant response; conditions: Ipomoea, pre-emergence, Preemergence, scale 0 to 100 (0 no effect, 100 complete control), read-out: Plant response rating, Morningglory
Description: as §1

[10] = system: large (Lg) crabgrass (Digitaria sanguinalis); assay: Test D pre-/postemergence plant response; conditions: Digitaria sanguinalis, pre-emergence, Preemergence, scale 0 to 100 (0 no effect, 100 complete control), read-out: Plant response rating, Crabgrass, Large
Description: as §1

[11] = system: pigweed (Amaranthus retroflexus); assay: Test B pre-/postemergence plant response; conditions: Amaranthus retroflexus, 240 h, read-out: Plant response rating, Pigweed; for pest or weed control at 125 g/ha: 125 g ai/ha; for pest or weed control at 500 g/ha: 500 g ai/ha
Procedure, shortened: (§2)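 Evaluation is visual, about 10 days after application, rating injury from 0 (none) to 100 (complete control) relative to untreated controls. Application was a preemergence soil spray on seeded pots or a postemergence spray on one- to two-leaf plants.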

[12] = system: wheat (Triticum aestivum); assay: Test B pre-/postemergence plant response; conditions: Triticum aestivum, 240 h, read-out: Plant response rating, Wheat; for plant injury at 125 g/ha: 125 g ai/ha; for plant injury at 500 g/ha: 500 g ai/ha
Procedure, shortened: as §2

[13] = system: barnyardgrass (Echinochloa crus-galli); assay: Test B pre-/postemergence plant response; conditions: Echinochloa crus-galli, 240 h, read-out: Plant response rating, Barnyardgrass; for pest or weed control at 125 g/ha: 125 g ai/ha; for pest or weed control at 500 g/ha: 500 g ai/ha
Procedure, shortened: as §2

corn (Zea mays) = assay: Test B pre-/postemergence plant response; conditions: Zea mays, 240 h; for Corn plant response rating (crop injury, 0 = no effect, 100 = complete kill) at 125 g/ha: 125 g ai/ha; for Corn plant response rating (crop injury, 0 = no effect, 100 = complete kill) at 500 g/ha: 500 g ai/ha
Procedure, shortened: as §2

[14] = system: giant foxtail (Setaria faberii); assay: Test B pre-/postemergence plant response; conditions: Setaria faberi, 240 h, read-out: Plant response rating, Foxtail, Giant; for pest or weed control at 125 g/ha: 125 g ai/ha; for pest or weed control at 500 g/ha: 500 g ai/ha
Procedure, shortened: as §2

[15] = post-emergence, postemergence, 0 to 100 scale, 0 no effect, 100 complete control
[16] = post-emergence, Postemergence, 0 to 100 scale (0 no effect, 100 complete control)
[17] = pre-emergence, Preemergence, 0 to 100 scale where 0 is no effect and 100 is complete control

FCc1cc(-c2ccccc2Oc2ncc(Cl)cn2)no1 [Compound 32, 5-chloro-2-[2-[5-(fluoromethyl)-3-isoxazolyl]phenoxy]pyrimidine]
85%: pest or weed control at 62 g/ha ([2]; 62 g ai/ha) | pest or weed control at 31 g/ha ([6]; 31 g ai/ha)
50%: Corn plant response rating (crop injury, 0 = no effect, 100 = complete kill) at 500 g/ha (corn (Zea mays); [16])
15%: plant injury at 16 g/ha (soybean (Glycine max); 16 g ai/ha)
5%: pest or weed control at 16 g/ha ([4]; 16 g ai/ha, scale 0 to 100 (0 no effect, 100 complete control), read-out: Plant response rating, Barnyardgrass) | pest or weed control at 31 g/ha ([9]; 31 g ai/ha)
75%: pest or weed control at 31 g/ha ([2]; 31 g ai/ha) | pest or weed control at 8 g/ha ([5]; 8 g ai/ha) | pest or weed control at 31 g/ha ([5]; 31 g ai/ha)
55%: pest or weed control at 31 g/ha ([4]; 31 g ai/ha, scale 0 to 100 (0 no effect, 100 complete control), read-out: Plant response rating, Barnyardgrass)
90%: pest or weed control at 16 g/ha ([10]; 16 g ai/ha) | pest or weed control at 500 g/ha [13, 16] | pest or weed control at 125 g/ha [13, 17] | pest or weed control at 500 g/ha [13, 17] | pest or weed control at 500 g/ha [14, 16] | pest or weed control at 125 g/ha [14, 17]
60%: pest or weed control at 8 g/ha ([3]; 8 g ai/ha) | pest or weed control at 16 g/ha ([5]; 16 g ai/ha) | plant injury at 500 g/ha [12, 16]
45%: pest or weed control at 16 g/ha ([2]; 16 g ai/ha)
0%: pest or weed control at 8 g/ha ([2]; 8 g ai/ha) | pest or weed control at 31 g/ha ([3]; 31 g ai/ha) | pest or weed control at 8 g/ha ([4]; 8 g ai/ha, scale 0 to 100 (0 no effect, 100 complete control), read-out: Plant response rating, Barnyardgrass) | pest or weed control at 8 g/ha ([6]; 8 g ai/ha) | pest or weed control at 8 g/ha ([8]; 8 g ai/ha) | pest or weed control at 16 g/ha ([8]; 16 g ai/ha) | pest or weed control at 8 g/ha ([9]; 8 g ai/ha) | pest or weed control at 16 g/ha ([9]; 16 g ai/ha) | pest or weed control at 62 g/ha ([9]; 62 g ai/ha) | plant injury at 125 g/ha [12, 17] | Corn plant response rating (crop injury, 0 = no effect, 100 = complete kill) at 125 g/ha (corn (Zea mays); [17]) | Corn plant response rating (crop injury, 0 = no effect, 100 = complete kill) at 500 g/ha (corn (Zea mays); [17])
98%: pest or weed control at 31 g/ha ([1]; 31 g ai/ha) | pest or weed control at 62 g/ha ([4]; 62 g ai/ha, read-out: Plant response rating (scale 0 to 100), Barnyardgrass) | pest or weed control at 62 g/ha ([7]; 62 g ai/ha) | pest or weed control at 31 g/ha ([10]; 31 g ai/ha)
95%: pest or weed control at 62 g/ha ([6]; 62 g ai/ha)
30%: pest or weed control at 31 g/ha ([8]; 31 g ai/ha) | plant injury at 125 g/ha [12, 15]
25%: pest or weed control at 62 g/ha ([3]; 62 g ai/ha) | plant injury at 31 g/ha (soybean (Glycine max); 31 g ai/ha)
100%: pest or weed control at 8 g/ha ([1]; 8 g ai/ha) | pest or weed control at 16 g/ha ([1]; 16 g ai/ha) | pest or weed control at 62 g/ha ([1]; 62 g ai/ha) | pest or weed control at 8 g/ha ([7]; 8 g ai/ha) | pest or weed control at 16 g/ha ([7]; 16 g ai/ha) | pest or weed control at 31 g/ha ([7]; 31 g ai/ha) | pest or weed control at 8 g/ha ([10]; 8 g ai/ha) | pest or weed control at 62 g/ha ([10]; 62 g ai/ha) | pest or weed control at 125 g/ha [11, 15] | pest or weed control at 500 g/ha [11, 16] | pest or weed control at 125 g/ha [11, 17] | pest or weed control at 500 g/ha [11, 17] | pest or weed control at 500 g/ha [14, 17]
70%: pest or weed control at 62 g/ha ([5]; 62 g ai/ha) | pest or weed control at 125 g/ha [13, 15] | pest or weed control at 125 g/ha [14, 15]
10%: plant injury at 8 g/ha (soybean (Glycine max); 8 g ai/ha) | plant injury at 500 g/ha [12, 17] | Corn plant response rating (crop injury, 0 = no effect, 100 = complete kill) at 125 g/ha (corn (Zea mays); [15])
65%: pest or weed control at 16 g/ha ([3]; 16 g ai/ha) | plant injury at 62 g/ha (soybean (Glycine max); 62 g ai/ha)
35%: pest or weed control at 16 g/ha ([6]; 16 g ai/ha) | pest or weed control at 62 g/ha ([8]; 62 g ai/ha)
